The numbers were not newly measured in patent US5314690A, “Method and composition for treating IgE-mediated allergies” (Northwestern University, priority 1992, dated 1994), which cites them from elsewhere.

In data set [1] the test system is immune response. The settings on record: reported by Siemion et al.; for Effect on the immune response at low doses: low doses (one dose).
In data set [2] the test system is immune response. The settings on record: reported by Siemion et al.
Setting [3] is: listed as N-terminal tetrapeptide.
[4] abbreviates: listed as C-terminal pentapeptide.

Like-named read-outs stand apart in the source and are kept apart here. Where no end group is shown, it is not given here.

Take Gly-Pro-Arg-Pro (GPRP) [SP^1-4, No. 5]: in the data set with immune response [1], the “Effect on the immune response at higher doses” value was “slightly stimulated” and the “Effect on the immune response at low doses” value is “only moderately suppressed the immune response”. Besides, in the data set with immune response [1] (setting [3]), the “Effect on the immune response at higher doses” value is “stimulatory at a higher dose” and the “Effect on the immune response at low doses” value is listed as “suppressive at one dose”.

Regarding “Phe-Phe-Gly-Leu-Met-NH2 (FFGLM-NH2) [SP^7-11, No. 2]”, the “Effect on the immune response in vivo” value was “distinct immuno-suppression in vivo” in the data set with immune response [1] and “immunosuppressant” in the data set on immune response [1] (setting [4]). Also, the “Effect on the immune response in vitro” value with immune response [2] is recorded as “suppressed the immune response in vitro”; in the data set with immune response [2] (setting [4]), “immunosuppressant”.
